Assay results reported in patent US20220362227A1, “COMPOSITION OF PHYTONUTRIENTS FOR DIABETES MANAGEMENT” (ROSEMAN UNIVERSITY OF HEALTH SCIENCES, priority 2021, published 2022).

Tests used:
[1] = system: Akt2; assay: Screening for insulin-sensitizing phytonutrients: cIEF immunoassays of Akt2 phosphorylation; assay type: cell-based, human; conditions: for increase of insulin-stimulated pAkt2 (Ser473) phosphorylation: together with 100 nM insulin, compared to insulin alone, cIEF; for Akt2 phosphorylation on cIEF electropherogram: treatment alone, 30 minutes, versus untreated control; for EC50: half-maximal effective concentration, primary human preadipocytes
Description: (§1) Mapping Akt Isoforms Using Capillary Isoelectric Focusing (cIEF) Immunoassays. cIEF immunoassays separate proteins in total cell extracts (TCEs) by their isoelectric points (pIs) in nano-capillaries. The positions of the proteins are stabilized via UV-irradiated crosslinking of proteins to the sidewalls of the capillaries. A primary antibody that recognizes a specific protein of interest is introduced to individual capillaries. Then a secondary antibody linked to horseradish peroxidase is introduced. Following the introduction of the chemiluminescent substrates, the distribution of the isoforms of a protein is detected and presented graphically as electropherograms of intensity versus isoelectric points. Phosphorylation and acetylation of a protein generally leads to shifts toward lower pI values. In contrast, glycosylation of a protein generally leads to a shift toward higher pI values.
(§2) Human Primary Preadipocytes. Primary human preadipocytes were isolated from omental adipose tissues overweight and diabetic donors who were undergoing elective surgery using a previously published protocol. Primary human preadipocytes were maintained in growth media comprising Minimum Essential Medium a supplemented with 10% fetal bovine serum, 100 units/ml penicillin, and 100 μg/ml streptomycin.
(§3) Screening for Insulin-Sensitizing Phytonutrients. Primary human preadipocytes were treated for 30 minutes with 100 nM insulin (Humulin R, Eli Lilly, Indianapolis, Ind.), individual phytonutrients (Table 1 & Table 2), or combinations of insulin and phytonutrients. Total cell extracts (TCE) were collected and subjected to nanofluidic proteomic analysis including capillary isoelectric focusing (cIEF) immunoassays and capillary Western (CW) immunoassays.
(§4) Preparation of Total Cell Extracts. Approximately one million cells were incubated on ice for 10 minutes with 60 μl of lysis buffer (cat. no. 040-764, ProteinSimple, Santa Clara, Calif., USA), sonicated 4 times for 5 seconds each, mixed by rotation for 2 hours at 4° C., and centrifuged at 12,000 rpm in an Eppendorf 5430R microfuge for 20 minutes at 4° C. The supernatant was collected as the cell lysate. The total protein concentration in the cell lysate was determined with a Bradford protein assay and adjusted to a final concentration of 0.3 μg/μl with separation gradients (cat. no. Premix G2, pH 5-8, ProteinSimple, Santa Clara, Calif.) for charge-based cIEF immunoassays or to 0.4 μg/μl with denaturing buffers (cat. no. PS-ST01EZ or PS-ST03EZ, ProteinSimple) for size-based Western immunoassays.
(§5) Capillary Isoelectric Focusing Immunoassays. Cell lysates in separation gradients were loaded into 384-well assay plates (cat. no. 040-663, ProteinSimple) preloaded with primary and secondary antibodies and chemiluminescent substrates. Charge-based protein separation and detection in individual capillaries were performed using the default protocols of the NanoPro 1000 system (ProteinSimple). Hsp70 was used as the loading control. All cIEF immunoassays were performed in triplicate for each protein, and duplicate experiments were performed for each treatment condition, producing six repeated measurements per protein.

[2] = system: primary human preadipocytes; assay: Glucose uptake assay (2-NBDG, flow cytometry); assay type: cell-based; conditions: together with 100 nM insulin, compared to insulin alone, 30 minutes
Procedure: The glucose uptake assay used 2-NBDG, a fluorescently-labeled deoxyglucose analog, as a probe for the detection of glucose taken up by human primary preadipocytes. Flow cytometry was used to detect 2-NBDG uptake in single preadipocytes.
Glucose Uptake Assays. Primary human preadipocytes grown to 70% confluence in growth media, washed with phosphate buffered saline, and replaced with glucose-free DMEM media. Following 2 hours of incubation in glucose-free DMEM media, preadipocytes were treated with 100 μg/ml of 2-NDBG fluorescent glucose analog and insulin (100 nM) or phytonutrients (EC50) for 30 minutes. Preadipocytes were collected and analyzed using the Acuri C6 flow cytometer (BD Biosciences, San Jose, Calif.) and the 485 nm excitation and 535 nm emission filters.

[3] = system: primary human preadipocytes; assay: Adipogenesis assay (adipogenic biomarkers, Oil Red O staining); assay type: cell-based; conditions: for EC50: read-out: EC50 (anti-adipogenic phytonutrients)
Procedure: Adipogenesis Assays. Primary human preadipocytes were grown to confluence in growth media. At 2 days post-confluence, growth media were aspirated off the culture dishes and complete differentiation media were added. Complete differentiation media comprise […] with 18.5 mM glucose, HEPES (15 mM), NaHCO3 (25 mM), 100 units/ml penicillin, 100 μg/ml streptomycin, d-biotin (33 μM), pantothenate (17 μM), dexamethasone (100 nM), insulin (100 nM), rosiglitazone (1 μM), IBMX (0.5 mM), triiodothyronine (T3, 2 nM), and transferrin (10 μg/ml). On day three post-differentiation, complete differentiation media were replenished. On day seventh post-differentiation, complete differentiation media were replaced with maintenance media. Maintenance media comprise […], 100 units/ml penicillin, 100 μg/ml streptomycin, HEPES (15 mM), NaHCO3 (25 mM), d-biotin, pantothenate, insulin (10 nM), and dexamethasone (10 nM). Maintenance media were replenished on days tenth post-differentiation. Complete differentiation of preadipocytes into adipocytes were achieved on day fourteenth post-differentiation. To screen for anti-adipogenic phytonutrients, individual phytonutrients were mixed in complete differentiation media from day 0 to day 6th post-differentiation. Phytonutrients were removed together with complete differentiation media on day 7th post-differentiation following the replacement with maintenance media. Anti-adipogenic phytonutrients were identified based on their ability to: (1) suppress the expression of adipogenic biomarkers using proteomic assays of total cell extracts collected on day 6th post-differentiation, and (2) suppress intracellular lipid droplet accumulation using Oil Red O staining assays on day 14th post-differentiation.

[4] = system: Akt; assay: Capillary Western and cIEF immunoassays of pAkt (Thr308), pAkt (Thr450), pAkt (Ser473); assay type: cell-based, human; conditions: for increase of pAkt (Ser473) phosphorylation / increase of pAkt (Thr308) phosphorylation / increase of pAkt (Thr450) phosphorylation: 30 minutes treatment, versus untreated control, capillary Western densitometry
Procedure: as §2, §3, §4, §5
Capillary Western Immunoassays. Cell lysates in denaturing buffers were denatured at 95° C. for 5 minutes, and then transferred to assay plates (cat. no. SM-W004 or SM-W008, ProteinSimple) preloaded with blocking reagents, wash buffer, primary and secondary antibodies, and chemiluminescent substrates. Sized-based protein separation and detection in capillaries were performed using the default protocols of the Jess system (ProteinSimple). β-Actin was used as loading controls. All capillary Western immunoassays were performed in triplicate for each protein, and duplicate experiments were performed for each treatment condition, producing six repeated measurements per protein.

[5] = system: Akt1; assay: cIEF immunoassays of Akt1; assay type: cell-based, human; conditions: for Akt1 cIEF electropherogram: treatment alone, 30 minutes, versus untreated
Description: as §1, §3
as §4, with “The supernatant was collected as the cell lysate.” left out, “immunoassays. […]” for “immunoassays.”

[6] = system: Akt3; assay: cIEF immunoassays of Akt3; assay type: cell-based, human; conditions: for Akt3 cIEF electropherogram: treatment alone, 30 minutes, versus untreated
Description: as §1, §3
as §4, with “The supernatant was collected as the cell lysate.” left out, “immunoassays. […]” for “immunoassays.”

[7] = half-maximal effective concentration, primary human preadipocytes
[8] = together with insulin, compared to insulin alone

Which results are given for `COc1ccc2cc3[n+](cc2c1OC)CCc1cc2c(cc1-3)OCO2` [Berberine]?
increase of insulin-stimulated pAkt2 (Ser473) phosphorylation [1]: no effect; Akt2 phosphorylation on cIEF electropherogram [1]: no effect; increase of insulin-stimulated glucose uptake by preadipocytes [2]: no effect; inhibition of adipogenesis ([3]; differentiating primary human preadipocytes): strong inhibitor of adipogenesis; EC50 [3, 7]: 10 µM

Which results are given for `O=CC=Cc1ccccc1` [Cinnamaldehyde]?
EC50 [1]: 40 µM; Akt2 phosphorylation on cIEF electropherogram [1]: new peak at pI 5.41; increase of pAkt (Ser473) phosphorylation [4]: no effect; increase of pAkt (Thr308) phosphorylation [4]: no effect; increase of pAkt (Thr450) phosphorylation [4]: 1.6 folds; increase of insulin-stimulated pAkt (Ser473) phosphorylation ([4]; together with 100 nM insulin, compared to insulin alone, cIEF and CW immunoassays): ~4 folds; increase of insulin-stimulated glucose uptake by preadipocytes [2]: approximately 1.6 folds; phosphorylation of Akt1 on cIEF electropherogram [5, 8]: no observable effect; Akt1 cIEF electropherogram [5]: no observable effect; phosphorylation of Akt3 on cIEF electropherogram [6, 8]: no observable effect; Akt3 cIEF electropherogram [6]: no observable effect

`COc1cc(/C=C/C(=O)CC(=O)/C=C/c2ccc(O)c(OC)c2)ccc1O` [Curcumin] was tested. Which EC50 [1] did it give?
Its EC50 is 20 µM.

And the “increase of insulin-stimulated pAkt2 (Ser473) phosphorylation” value [1]?
The value was “approximately 4 folds”.

And the “Akt2 phosphorylation on cIEF electropherogram” value [1]?
Its value is “new peak at pI 5.41”.

What about the “increase of insulin-stimulated glucose uptake by preadipocytes” value [2] of the same molecule?
Its value is ~1.7 folds.

`O=C(O[C@@H]1Cc2c(O)cc(O)cc2O[C@@H]1c1cc(O)c(O)c(O)c1)c1cc(O)c(O)c(O)c1` [Epigallocatechin Gallate] was tested. Which EC50 [3, 7] did it give?
The EC50 was 20 µM.

How did the EC50 [3, 7] turn out when `O=c1c(O)c(-c2ccc(O)c(O)c2)oc2cc(O)ccc12` [Fisetin] was run?
Its EC50 is 50 µM.

With `COc1ccc([C@@H]2CC(=O)c3c(O)cc(O[C@@H]4O[C@H](CO[C@@H]5O[C@@H](C)[C@H](O)[C@@H](O)[C@H]5O)[C@@H](O)[C@H](O)[C@H]4O)cc3O2)cc1O` [Hesperidin] as the molecule, how does the EC50 [3, 7] read?
Its EC50 is 20 µM.

With `OCc1c[nH]c2ccccc12` [Indole-3-Carbinol] as the molecule, how does the EC50 [3, 7] read?
The EC50 was 20 µM.

`O=c1cc(-c2ccc(O)c(O)c2)oc2cc(O)cc(O)c12` [Luteolin] was tested. Which EC50 [3, 7] did it give?
Its EC50 is 20 µM.

Which EC50 [3, 7] does the source give for `O=c1c(O)c(-c2ccc(O)c(O)c2)oc2cc(O)cc(O)c12` [Quercetin] here?
The EC50 was 25 µM.

With `Oc1ccc(C=Cc2cc(O)cc(O)c2)cc1` [Resveratrol] as the molecule, how does the EC50 [3, 7] read?
Its EC50 is 40 µM.

With Fucoidan as the molecule, how does the “EC50 (anti-adipogenic phytonutrients)” value [3, 7] read?
Its value is 100 µg/mL.

Which results are given for “insulin: 100 nM insulin (Humulin R, Eli Lilly) [reference compound]”?
Akt2 phosphorylation on cIEF electropherogram [1]: two new peaks at pI 5.20 and pI 5.30; increase of pAkt (Ser473) phosphorylation [4]: ~5.7 folds; increase of pAkt (Thr308) phosphorylation [4]: approximately 3 folds; increase of pAkt (Thr450) phosphorylation [4]: ~1.6 folds; Akt1 cIEF electropherogram [5]: nearly identical; Akt3 cIEF electropherogram [6]: two new peaks at pI 5.03 and pI 5.12
